Assay results taken from article PMC6093661, “Vitamin E hydroquinone is an endogenous regulator of ferroptosis via redox control of 15-lipoxygenase” (PLoS ONE, 2018).
Several values for one entry are separate records, joined by “and”; a condition that tells them apart may be missing. Equal values may be shown once. Read-outs that look alike come from different tables or passages of the source.

Experiments:
[1] = biological target: T1, Rabbit 15-lipoxygenase (rLOX15) (Oryctolagus cuniculus, UniProt P12530); assay: Lipoxygenase enzyme inhibition assay; format: biochemical; conditions: for activity at 100 µM: read-out: 15-Lipoxygenase Enzyme Assay % activity at 100 μM; for IC50: 50 μM arachidonic acid substrate
T1 construct: purchased Enzo Life Sciences, Inc. BML-PL015
T1 sequence (P12530 1-663): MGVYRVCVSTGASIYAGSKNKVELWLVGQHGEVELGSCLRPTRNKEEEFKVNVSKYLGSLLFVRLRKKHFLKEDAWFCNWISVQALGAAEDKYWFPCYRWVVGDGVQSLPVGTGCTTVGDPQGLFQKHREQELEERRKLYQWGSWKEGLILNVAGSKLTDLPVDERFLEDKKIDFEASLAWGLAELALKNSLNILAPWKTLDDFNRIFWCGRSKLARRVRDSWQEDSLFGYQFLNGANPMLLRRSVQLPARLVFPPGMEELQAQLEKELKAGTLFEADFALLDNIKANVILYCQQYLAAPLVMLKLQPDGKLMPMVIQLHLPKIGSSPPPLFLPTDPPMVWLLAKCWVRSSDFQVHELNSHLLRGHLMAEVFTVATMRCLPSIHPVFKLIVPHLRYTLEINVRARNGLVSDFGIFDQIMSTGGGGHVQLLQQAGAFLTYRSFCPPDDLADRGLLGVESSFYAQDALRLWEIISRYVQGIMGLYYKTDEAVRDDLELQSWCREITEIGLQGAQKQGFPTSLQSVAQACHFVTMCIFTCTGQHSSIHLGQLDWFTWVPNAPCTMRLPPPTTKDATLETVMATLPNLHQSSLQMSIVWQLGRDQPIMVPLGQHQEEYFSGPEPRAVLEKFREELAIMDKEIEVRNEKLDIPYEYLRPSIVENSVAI
Procedure: Rabbit 15-lipoxygenase (rLOX15, part number BML-PL015, lot number 3-P9009a) was obtained from Enzo Life Sciences, Inc. Sodium cholate (part number C6445, lot number 094K0209) was obtained from Sigma-Aldrich.
Stock solutions of test compounds were prepared in DMSO and then diluted to final assay concentrations in cholate mix such that final cholate and DMSO concentrations were maintained at 0.2%.

[2] = system: Mouse striatal Q7 cells (STHdhQ7/Q7); assay: RSL3 ferroptosis cell rescue (cellular survival assay, CellTiter-Glo)
[3] = ORAC (oxygen radical absorbance capacity) assay; conditions: average of 25 and 12.5 μM compound; mean, SEM, n = 6
Procedure: ORAC assay kits were purchased from Cell Biolabs. Assays were performed per the manufacturer’s instructions for lipophilic samples with minor modifications. DMSO stock solutions of compounds were diluted in an anaerobic glovebox to final concentrations of 25 and 12.5 μM in triplicate. A standard curve of Trolox® between 0–100 μM in triplicate per concentration was also generated on each assay plate. Diluted compounds and standards were removed from the glovebox and reactions initiated by addition of aerobic fluorescein reagent and radical initiator. Fluorescein fluorescence was monitored at excitation wavelength of 480 nm and emission wavelength of 520 nm every minute for one hour. AUC analysis was performed as described in the kit protocol. The “Trolox equivalents” at each concentration of test compound were calculated and the average Trolox equivalents at the two compound concentrations are presented. The errors were determined by propagating errors from the SEMs of the triplicate determinations to the averages across the two triplicate determinations.

[4] = Radical-trapping antioxidant (RTA) activity assay in DOPC liposomes
[5] = system: 15-HETE release from Q7 cells; assay: Targeted arachidonate metabolite release cellular assay (RSL3-treated Q7 cells); format: cell-based, mouse; conditions: RSL3 co-treatment, compound 10 μM
Procedure: Ferroptosis was initiated by RSL3 (2 μM final concentration) in Q7 cells as described above. The protective activity of co-treated compounds was assessed also as described above. Four to five hours after RSL3 treatment, the conditioned medium was collected into 1.2-mL cluster tubes containing ice-cold acetonitrile at a ratio of 1:2. Tubes were snap frozen on dry ice and stored at -80°C.
Prior to analysis, samples were thawed on wet ice and then vortexed briefly. Samples were centrifuged at 4000 rpm for 15min at 4°C. Supernatant (40 μL) was transferred to a 96-well injection plate and 10 μL of both internal standard and HPLC grade water were added. A Shimadzu Nexera MP system coupled to a Sciex 6500 Qtrap and configured for micro-flow was used to analyze all samples. Samples were maintained at 4°C in the Nexera MP autosampler for the duration of the analytical run.
A Thermo Gold-C8 column (1.9 μm, 1.0 x 100 mm) operated at 45°C was used for chromatographic separation. The total run time of the liquid chromatography method was 10 min. Mobile phase A consisted of water with 0.1% formic acid. Mobile phase B was composed of 0.1% formic acid in 3:1 acetonitrile:isopropyl alcohol. Gradient elution was employed, with mobile phase B being ramped from 5% at 0min, to 50% at 2 min, and finally 98% at 7.5 min. Electrospray conditions for the μLC-ESI-MS/MS method were optimized for a flow rate of 125 μL/min and were as follows: Ion spray voltage was set to -4500 V, temperature of 250°C, curtain gas of 20, CAD gas of 10, and ion source gas 1 and 2 of 20 and 40 psi, respectively. Analyzer parameters were optimized for each compound using a combination of manual tuning and compound optimization. The following MRM transitions were used to quantify concentrations of 15-HETE, 12-HETE and Arachidonic Acid (AA). 15-HETE: 319→219; 12-HETE: 319→179; AA: 303→259.

[6] = system: Q7 cells; assay: Cellular lipid oxidation assay (BODIPY 581/591 C11, RSL3-treated Q7 cells); format: cell-based, mouse; conditions: RSL3 2 μM, 6-point titration, time-lapse microscopy
Procedure: Ferroptosis was induced by RSL3 (2 μM final concentration) in Q7 cells as described above. The protective activity of co-treated compounds was assessed also as described above. The rate of cellular lipid oxidation after GPX4 inhibition was assessed by monitoring the time-dependent changes in green fluorescence of cells pre-labeled with BODIPY™ 581/591 C11 dye (5 μM, 30-minute labeling period; Thermo Fisher/Invitrogen) using the IncuCyte S3 live-cell imaging apparatus (Sartorius) using a 10x objective. Cells (three images per field; at least three replicate wells per condition) were imaged once hourly for up to 18 hours after compound and RSL3 addition. Quantification of cell images was performed using the IncuCyte Zoom software using the Basic Analyzer tool which utilized an algorithm that calculated the total green-positive area per well where “green-positive” was defined as 1.45 times the local background-subtracted fluorescent signal. After a 2-3-hour lag period post-RSL3 treatment, the cellular green fluorescence signal began increasing. The rate of change in total green-positive area per well from 3–9 hours post-compound treatment was calculated, then expressed relative to that observed in the RSL3-only control treatment group, which was defined as 100%.

[7] = system: Q7 cells; assay: RSL3-induced loss of Q7 cell viability; format: cell-based, mouse
Procedure: Ferroptotic cell death was induced in Q7 cells using RSL3, a GPX4 inhibitor previously described. All four stereoisomers of RSL3 were synthesized and purified using published methods. […] To assess compound rescue activity and potency from ferroptotic cell death, Q7 cells were seeded in clear bottom, black wall tissue culture-treated polystyrene plates (Corning) using either an electronic multichannel pipette or a Multidrop™ Combi Reagent Dispenser (ThermoFisher Scientific). Cells were incubated for 5 hours at 33°C in an atmosphere with 95% humidity and 5% CO2 to allow attachment of the cells to the culture plate. Test compounds were administered to the desired final concentrations using a D300e Digital Dispenser (Tecan), followed within 15 minutes by RSL3 (2 μM final concentration). DMSO diluent was back-filled to a final concentration of 0.3% (v/v). Cell plates were incubated at 33°C (5% CO2, 95% humidity) for 18 hours. After a 15-minute equilibration to room temperature, cell number/viability was assessed using the CellTiter-Glo® 2.0 Cell Titer Glo 2.0 reagent (a luminescence-based assay to quantitate ATP; Promega) which was added using the Multidrop™ Combi Reagent Dispenser (Thermo Fisher Scientific). After 15 minutes of incubation at room temperature, the luminescence (100 ms integration time) per well was determined using the BioTek Synergy plate reader. Data was imported into and analyzed using Dotmatics Studies software suite. EC50 values for each compound were estimated using standard four-parameter curve fitting algorithms. pEC50 is defined as negative-log10 (EC50) in M units.

[8] = Mus musculus, 18 h, read-out: RSL3 Ferroptosis Cell Assay Average EC50, Q7 cells, RSL3 2 μM, 18 h co-treatment, CellTiter-Glo 2.0

Compound: Cc1cc(O)cc2c1O[C@](C)(CCC[C@H](C)CCC[C@H](C)CCCC(C)C)CC2 [δT, δ-tocopherol]
- activity at 100 µM ([1]; rabbit 15-LO, compound 100 μM): 45%
- EC50 [2, 8]: 5670 nM

Compound: CC1=C(C)C(=O)C(CC[C@](C)(O)CCC[C@H](C)CCC[C@H](C)CCCC(C)C)=CC1=O [γTQ, γ-tocopherol quinone]
- EC50 [2, 8]: 101 nM

Compound: Cc1c(O)cc2c(c1C)O[C@](C)(CCC[C@H](C)CCC[C@H](C)CCCC(C)C)CC2 [γT, γ-tocopherol]
- activity at 100 µM ([1]; rabbit 15-LO, compound 100 μM): 34%
- EC50 [2, 8]: 3220 nM

Compound: CC1=CC(=O)C=C(CC[C@](C)(O)CCC[C@H](C)CCC[C@H](C)CCCC(C)C)C1=O [δTQ]
- EC50 [2, 8]: 236 nM

Compound: CC(C)=CCC/C(C)=C/CC/C(C)=C/CC[C@@](C)(O)CCC1=CC(=O)C(C)=C(C)C1=O [γT3Q, γ-tocotrienol quinone]
- EC50 [2, 8]: 52 nM

Compound: CC(C)=CCC/C(C)=C/CC/C(C)=C/CC[C@]1(C)CCc2c(C)c(O)c(C)c(C)c2O1 [αT3, α-tocotrienol]
- IC50 ([1]; rabbit 15-LO): > 100000 nM
- activity at 100 µM ([1]; rabbit 15-LO, compound 100 μM): 64%
- EC50 [2, 8]: 167 nM
- fold more potent in inhibiting ferroptosis, tocotrienol vs corresponding tocopherol ([2]; Q7 cells, RSL3, EC50 ratio): ~ 30 fold

Compound: Cc1c(C)c2c(c(C)c1O)CC[C@@](C)(CCC[C@H](C)CCC[C@H](C)CCCC(C)C)O2 [αT, α-tocopherol, reference compound]
- ORAC Antioxidant Activity Assay Trolox Equiv. [3]: 0.073 Trolox Equiv. and 0.073 ± 0.008 Trolox Equiv.
- Radical Trapping Assay AUC (Rel. Control) ([4]; 50 μM compound, 2 mol% in DOPC liposomes, BODIPY 581/591 C11 quenching, liposome-only control = 1): 5.123
- RTA AUC fold greater than αTQ and αTHQ ([4]; DOPC liposomes, AUC relative to liposome only control): 2.5–4 fold
- reduction of RSL3-induced 15-HETE production [5]: 19%
- inhibition of rabbit 15-LO enzyme activity ([1]; arachidonic acid as substrate, up to 100 μM): did not
- IC50 ([1]; rabbit 15-LO): > 100000 nM
- activity at 100 µM ([1]; rabbit 15-LO, compound 100 μM): 78%
- EC50 [2, 8]: 5160 nM
- EC50 ([2]; read-out: RSL3 Ferroptosis Cell Assay Average EC50, Q7 cells, RSL3 2 μM, 18 h co-treatment, CellTiter-Glo 2.0): 5200 ± 2800 nM
- effect on RSL3-induced lipid oxidation (BODIPY 581/591 C11 oxidation) [6]: prevented

Compound: CC(C)=CCC/C(C)=C/CC/C(C)=C/CC[C@@](C)(O)CCc1cc(O)cc(C)c1O [δT3HQ, δ-tocotrienol hydroquinone]
- IC50 ([1]; rabbit 15-LO): 1370 nM
- activity at 100 µM ([1]; rabbit 15-LO, compound 100 μM): 14%
- EC50 [2, 8]: 146 nM

Compound: CC(C)=CCC/C(C)=C/CC/C(C)=C/CC[C@]1(C)CCc2cc(O)c(C)c(C)c2O1 [γT3, γ-tocotrienol]
- activity at 100 µM [1]: 33%

Compound: CC(C)=CCC/C(C)=C/CC/C(C)=C/CC[C@@](C)(O)CCc1cc(O)c(C)c(C)c1O [γT3HQ, γ-tocotrienol hydroquinone]
- IC50 ([1]; rabbit 15-LO): 1120 nM
- activity at 100 µM ([1]; rabbit 15-LO, compound 100 μM): 7%
- EC50 [2, 8]: 36 nM

Compound: Cc1c(C)c2c(c(C)c1O)CC[C@@](C)(CCC(=O)O)O2 [α-CEHC]
- activity at 100 µM ([1]; rabbit 15-LO, compound 100 μM): 24%
- EC50 [2, 8]: 8510 nM

Compound: CC(C)=CCC/C(C)=C/CC/C(C)=C/CC[C@]1(C)CCc2cc(O)cc(C)c2O1 [δT3, δ-tocotrienol]
- activity at 100 µM ([1]; rabbit 15-LO, compound 100 μM): 46%
- EC50 [2, 8]: 517 nM

Compound: CC(C)=CCC/C(C)=C/CC/C(C)=C/CC[C@@](C)(O)CCc1c(C)c(O)c(C)c(C)c1O [αT3HQ, α-tocotrienol hydroquinone]
- IC50 ([1]; rabbit 15-LO): 1990 nM
- activity at 100 µM ([1]; rabbit 15-LO, compound 100 μM): 9%
- EC50 [2, 8]: 43 nM

Compound: Cc1c(O)cc(CC[C@](C)(O)CCC[C@H](C)CCC[C@H](C)CCCC(C)C)c(O)c1C [γTHQ, γ-tocopherol hydroquinone]
- IC50 ([1]; rabbit 15-LO): 2190 nM
- activity at 100 µM ([1]; rabbit 15-LO, compound 100 μM): 18%
- EC50 [2, 8]: 64 nM

Compound: CC(C)=CCC/C(C)=C/CC/C(C)=C/CC[C@@](C)(O)CCC1=CC(=O)C=C(C)C1=O [δT3Q, δ-tocotrienol quinone]
- EC50 [2, 8]: 163 nM

Compound: Cc1cc(O)cc(CC[C@](C)(O)CCC[C@H](C)CCC[C@H](C)CCCC(C)C)c1O [δTHQ, δ-tocopherol hydroquinone]
- IC50 ([1]; rabbit 15-LO): 2090 nM
- activity at 100 µM ([1]; rabbit 15-LO, compound 100 μM): 17%
- EC50 [2, 8]: 84 nM

Compound: CC(C)=CCC/C(C)=C/CC/C(C)=C/CC[C@@](C)(O)CCC1=C(C)C(=O)C(C)=C(C)C1=O [αT3Q, α-tocotrienol quinone]
- EC50 [2, 8]: 43 nM

Compound: COC(=O)c1ccc([C@H]2c3[nH]c4ccccc4c3C[C@H](C(=O)OC)N2C(=O)CCl)cc1 [(1S,3R)-RSL3]
- reduction of cell number/viability ([7]; RSL3 2 μM, 18 h, typical): > 80%
- onset of cell death after RSL3 addition ([7]; RSL3 ≥1 μM): ~ 5 h
- loss of cell viability ([7]; RSL3 ≥1 μM, 18 h after treatment): 80–95%
- IC50 ([7]; most potent single stereoisomer of RSL3, read-out: IC50 for inhibition of Q7 cell viability): ~200 nM
